A value given as a limit tells only on which side of the number the result lay.

The assay addresses LRRK2 G2019S enzyme (Homo sapiens (Human), UniProt Q5S007, G2019S). The assay is described as follows: LRRK2 G2019S biochemical TR-FRET assay (LRRKtide substrate). The note with it: 5 nM LRRK2, 134 μM ATP, 60 minute reaction time, 23° C. Here is the method: Materials: • LRRK2 G2019S enzyme • Substrate (LRRKtide) • ATP • TR-FRET dilution buffer • pLRRKtide antibody • 384-well assay plate • DMSO • Enzyme reaction conditions • 50 mM Tris pH 7.5, 10 mM MgCl2, 1 mM EGTA, 0.01% Brij-35, 2 mM DTT • 5 nM LRRK2 • 134 μM ATP • 60 minute reaction time • 23° C. reaction temperature • 10 μL total reaction volume
Detection reaction conditions • 1×TR-FRET dilution buffer • 10 mM EDTA • 2 nM antibody • 23° C. reaction temperature • 10 μL total reaction volume
Compounds were prepared by initially diluting to 1 mM with DMSO. 35 μL of reference compound solution, 35 μL of test compound solution, and 35 μL HPE were successively added to the source plate (384-well assay plate, Labcyte). The plates were centrifuged at 2500 rpm for 1 minute and sealed in foil. POD was used to perform a 3.162 fold serial dilution and 100 nL of reference compound solution, test compound solution, HPE and ZPE were transferred to assay plates. The assay plate was centrifuged at 2500 rpm for 1 minute, and sealed with foil.
To perform the enzyme reaction, 5 μL of LRRKtide substrate and kinase mixture in assay buffer was added to all wells of the assay plate. The plate was centrifuged to concentrate the mixture at the bottom of the wells. The assay plate was incubated at 23° C. for 20 minutes. Following incubation, 5 μL of 2×ATP in assay buffer was added to each well, and plates were centrifuged to concentrate the mixture at the bottom of the wells. The plate was incubated at 23° C. for 60 minutes.
To perform the detection of the reaction, EDTA completely mixed in TR-FRET dilution buffer was added to antibody reagent. 10 μL of detection reagent was added to all wells of each well of the assay plate and the plate was centrifuged to concentrate the mixture at the bottom of the wells. The plate was then incubated at 23° C. for 60 minutes. Plates were read on Perkin Elmer Envision 2104 instrument in TR-FRET mode using a 340 nm excitation filter, 520 nm fluorescence emission filter, and 490 or 495 nm terbium emission filter.
In the table below, activity is provided as follows: In the table below, activity is provided as follows: +++=IC50 less than 30 nM; ++=IC50 between 30 nM and 60 nM; +=IC50 greater than 60 nM.

LRRK2 G2019S enzyme, sequence (Q5S007 whole entry G2019S): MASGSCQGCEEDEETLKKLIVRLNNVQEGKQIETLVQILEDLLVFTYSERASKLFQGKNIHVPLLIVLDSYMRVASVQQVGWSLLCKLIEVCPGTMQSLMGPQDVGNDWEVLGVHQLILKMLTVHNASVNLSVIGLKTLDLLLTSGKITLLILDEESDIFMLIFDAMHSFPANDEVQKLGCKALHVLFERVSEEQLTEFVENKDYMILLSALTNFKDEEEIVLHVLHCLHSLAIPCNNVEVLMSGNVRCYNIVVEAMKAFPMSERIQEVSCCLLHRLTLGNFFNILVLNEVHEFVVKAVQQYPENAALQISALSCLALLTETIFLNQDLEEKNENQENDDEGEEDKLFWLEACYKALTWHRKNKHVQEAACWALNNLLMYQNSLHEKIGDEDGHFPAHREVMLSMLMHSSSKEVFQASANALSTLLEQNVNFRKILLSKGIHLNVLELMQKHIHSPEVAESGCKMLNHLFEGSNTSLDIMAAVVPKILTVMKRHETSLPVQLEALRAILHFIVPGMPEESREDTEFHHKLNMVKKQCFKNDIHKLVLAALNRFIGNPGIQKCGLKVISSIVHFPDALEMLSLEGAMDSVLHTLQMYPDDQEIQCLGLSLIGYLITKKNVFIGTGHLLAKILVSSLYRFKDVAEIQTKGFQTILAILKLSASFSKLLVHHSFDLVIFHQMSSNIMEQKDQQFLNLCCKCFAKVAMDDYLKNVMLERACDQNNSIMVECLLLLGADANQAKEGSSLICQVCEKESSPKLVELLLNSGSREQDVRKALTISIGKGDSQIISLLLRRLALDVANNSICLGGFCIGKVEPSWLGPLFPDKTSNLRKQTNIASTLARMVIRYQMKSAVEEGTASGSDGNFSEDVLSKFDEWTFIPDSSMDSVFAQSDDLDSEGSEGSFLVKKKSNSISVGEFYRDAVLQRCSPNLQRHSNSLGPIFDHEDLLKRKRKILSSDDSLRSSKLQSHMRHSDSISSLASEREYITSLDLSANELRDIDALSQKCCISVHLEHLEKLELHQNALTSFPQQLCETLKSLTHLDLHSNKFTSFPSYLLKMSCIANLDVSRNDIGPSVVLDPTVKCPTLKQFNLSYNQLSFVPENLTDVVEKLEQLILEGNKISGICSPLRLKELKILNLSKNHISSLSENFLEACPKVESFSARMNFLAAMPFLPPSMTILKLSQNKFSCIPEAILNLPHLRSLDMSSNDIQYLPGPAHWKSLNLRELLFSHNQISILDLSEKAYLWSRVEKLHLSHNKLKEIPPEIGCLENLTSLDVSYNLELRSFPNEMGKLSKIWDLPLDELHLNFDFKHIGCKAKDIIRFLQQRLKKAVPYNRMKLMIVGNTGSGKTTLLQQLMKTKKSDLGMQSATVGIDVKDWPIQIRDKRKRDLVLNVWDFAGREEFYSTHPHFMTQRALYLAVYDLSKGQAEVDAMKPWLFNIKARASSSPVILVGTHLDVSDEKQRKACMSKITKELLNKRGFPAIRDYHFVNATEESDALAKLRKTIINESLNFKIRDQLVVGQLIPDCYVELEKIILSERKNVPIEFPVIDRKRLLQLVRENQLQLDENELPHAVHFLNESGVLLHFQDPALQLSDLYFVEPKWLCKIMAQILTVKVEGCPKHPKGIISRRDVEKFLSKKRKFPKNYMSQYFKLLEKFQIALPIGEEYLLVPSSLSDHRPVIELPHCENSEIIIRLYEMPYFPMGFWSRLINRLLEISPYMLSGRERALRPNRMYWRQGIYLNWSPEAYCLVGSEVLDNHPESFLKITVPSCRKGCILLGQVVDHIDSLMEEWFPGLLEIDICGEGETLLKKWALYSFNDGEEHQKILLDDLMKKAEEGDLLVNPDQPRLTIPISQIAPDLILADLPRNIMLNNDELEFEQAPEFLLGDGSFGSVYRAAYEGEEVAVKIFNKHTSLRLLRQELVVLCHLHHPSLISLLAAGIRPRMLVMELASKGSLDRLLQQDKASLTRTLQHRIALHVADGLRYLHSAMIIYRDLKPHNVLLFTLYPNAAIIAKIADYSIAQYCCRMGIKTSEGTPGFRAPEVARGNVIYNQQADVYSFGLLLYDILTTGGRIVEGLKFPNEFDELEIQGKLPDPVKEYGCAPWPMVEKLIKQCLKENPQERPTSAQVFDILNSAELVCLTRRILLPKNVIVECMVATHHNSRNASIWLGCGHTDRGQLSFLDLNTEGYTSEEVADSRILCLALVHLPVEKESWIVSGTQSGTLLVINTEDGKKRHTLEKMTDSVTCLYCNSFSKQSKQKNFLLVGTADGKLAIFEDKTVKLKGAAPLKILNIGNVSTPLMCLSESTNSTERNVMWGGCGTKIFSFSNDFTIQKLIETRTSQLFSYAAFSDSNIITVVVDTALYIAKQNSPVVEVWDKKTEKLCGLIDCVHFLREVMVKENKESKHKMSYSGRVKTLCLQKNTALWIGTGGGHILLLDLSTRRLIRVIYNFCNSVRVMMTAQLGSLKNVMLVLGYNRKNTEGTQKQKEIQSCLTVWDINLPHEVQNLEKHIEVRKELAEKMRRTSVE

As to `[2H]C([2H])([2H])C1(c2nc(Cl)c(Nc3ncc(C(F)(F)F)c(NC)n3)s2)CCNC1=O` (single isomer, unassigned) [Compound 42], the IC50 is under 30 nM. To `[2H]C([2H])([2H])C1(c2nc(Cl)c(Nc3ncc(C(F)(F)F)c(NC)n3)s2)CCNC1=O` (single isomer, unassigned) [Compound 43] belongs under 30 nM. To `[2H]C([2H])([2H])N1CCC(c2nc(Cl)c(Nc3ncc(C(F)(F)F)c(NC)n3)s2)(C([2H])([2H])[2H])C1=O` (single isomer, unassigned) [Compound 44] belongs under 30 nM; to `[2H]C([2H])([2H])N1CCC(c2nc(Cl)c(Nc3ncc(C(F)(F)F)c(NC)n3)s2)(C([2H])([2H])[2H])C1=O` (single isomer, unassigned) [Compound 45], under 30 nM; to `[2H]C([2H])([2H])N1CCC(c2nc(Cl)c(Nc3ncc(C(F)(F)F)c(NCC)n3)s2)(C([2H])([2H])[2H])C1=O` (single isomer, unassigned) [Compound 46], under 30 nM. For `[2H]C([2H])([2H])N1CCC(c2nc(Cl)c(Nc3ncc(C(F)(F)F)c(NCC)n3)s2)(C([2H])([2H])[2H])C1=O` (single isomer, unassigned) [Compound 47], the IC50 was under 30 nM. With `[2H]C([2H])([2H])C1(c2nc(Cl)c(Nc3ncc(Br)c(OC)n3)s2)CCNC1=O` (single isomer, unassigned) [Compound 48] the figure was under 30 nM; with `[2H]C([2H])([2H])C1(c2nc(Cl)c(Nc3ncc(Br)c(OC)n3)s2)CCNC1=O` (single isomer, unassigned) [Compound 49], under 30 nM; with `[2H]C([2H])([2H])C1(c2nc(C3CC3)c(Nc3ncc(C(F)(F)F)c(NCC)n3)s2)CCNC1=O` (single isomer, unassigned) [Compound 51], under 30 nM. With `[2H]C([2H])([2H])C1(c2nc(C3CC3)c(Nc3ncc(C(F)(F)F)c(NCC)n3)s2)CCNC1=O` (single isomer, unassigned) [Compound 52] the figure was under 30 nM; with `[2H]C([2H])([2H])C1(c2nc(C3CC3)c(Nc3ncc(Br)c(OC)n3)s2)CCNC1=O` (single isomer, unassigned) [Compound 53], under 30 nM. With `[2H]C([2H])([2H])C1(c2nc(C3CC3)c(Nc3ncc(Br)c(OC)n3)s2)CCNC1=O` (single isomer, unassigned) [Compound 54] the figure was under 30 nM; with `[2H]C([2H])([2H])C1(c2nc(C3CC3)c(Nc3ncc(C(F)(F)F)c(NC)n3)s2)CCNC1=O` (single isomer, unassigned) [Compound 59], under 30 nM; with `[2H]C([2H])([2H])C1(c2nc(C3CC3)c(Nc3ncc(C(F)(F)F)c(NC)n3)s2)CCNC1=O` (single isomer, unassigned) [Compound 60], under 30 nM. In the case of `Cc1nc(C(C)(C)c2nc[nH]n2)sc1Nc1ncc(C(F)(F)F)c(C2CC2)n1` [Compound 1], the concentration for half-maximal inhibition (IC50) was under 30 nM. With `CNc1nc(Nc2sc(C3(C#N)CC3)nc2C)ncc1C(F)(F)F` [Compound 2] the figure was under 30 nM; with `Cc1nc(C2(c3nc[nH]n3)CC2)sc1Nc1ncc(C(F)(F)F)c(C2CC2)n1` [Compound 3], under 30 nM.

Turning to `CCNc1nc(Nc2sc(C(=O)N3CCC(F)(F)C3)nc2C)ncc1C(F)(F)F` [Compound 10], the IC50 is under 30 nM.

Consider `CNc1nc(Nc2cn(C)c(C#N)c2C)ncc1C(F)(F)F` [Compound 14, 1,3-dimethyl-4-((4-(methylamino)-5-(trifluoromethyl)pyrimidin-2-yl)amino)-1H-pyrrole-2-carbonitrile], for which the IC50 is under 30 nM. To `CCNc1nc(Nc2cn(Cc3ccn(C)n3)c(C#N)c2C)ncc1C(F)(F)F` [Compound 15, 4-((4-(ethylamino)-5-(trifluoromethyl)pyrimidin-2-yl)amino)-3-methyl-1-((1-methyl-1H-pyrazol-3-yl)methyl)-1H-pyrrole-2-carbonitrile] belongs under 30 nM; to `CCNc1nc(Nc2cn(S(C)(=O)=O)c(C#N)c2C)ncc1C(F)(F)F` [Compound 16, 4-((4-(ethylamino)-5-(trifluoromethyl)pyrimidin-2-yl)amino)-3-methyl-1-(methylsulfonyl)-1H-pyrrole-2-carbonitrile], under 30 nM. With `CNc1nc(Nc2sc(C(C)(C)C#N)nc2C)ncc1C(F)(F)F` [Compound 17, 2-methyl-2-(4-methyl-5-((4-(methylamino)-5-(trifluoromethyl)pyrimidin-2-yl)amino)thiazol-2-yl)propanenitrile] the figure was under 30 nM; with `CNc1nc(Nc2sc(C(C)(C)C(N)=O)nc2C)ncc1C(F)(F)F` [Compound 22], under 30 nM; with `[2H]C([2H])([2H])N1CCC(c2nc(C)c(Nc3ncc(C(F)(F)F)c(NC)n3)s2)(C([2H])([2H])[2H])C1=O` (stereo not shown) [Compound 23], under 30 nM. With `CCNc1nc(Nc2sc(C(=O)N3CCOCC3)nc2C)ncc1C(F)(F)F` [Compound 24] the figure was under 30 nM; with `CNc1nc(Nc2sc(C(C)(C)C(N)=O)nc2Cl)ncc1C(F)(F)F` [Compound 25], under 30 nM.

`CCNc1nc(Nc2sc(C(C)(C)C(N)=O)nc2C)ncc1C(F)(F)F` [Compound 26] gave a concentration for half-maximal inhibition (IC50) of under 30 nM. With `CCNc1nc(Nc2sc(C#N)nc2C)ncc1C(F)(F)F` [Compound 27] the figure was under 30 nM. With `CCNc1nc(Nc2sc(C(=O)NC)nc2C)ncc1C(F)(F)F` [Compound 28] the figure was under 30 nM; with `Cc1nc(C(C)(C)C(N)=O)sc1Nc1ncc(C(F)(F)F)c(NC2CC2)n1` [Compound 29], under 30 nM. To `Cc1nc(C(C)(C)C(N)=O)sc1Nc1ncc(C(F)(F)F)c(C2CC2)n1` [Compound 30] belongs under 30 nM; to `Cc1nc(C(C)(C)c2nnn(C)n2)sc1Nc1ncc(C(F)(F)F)c(C2CC2)n1` [Compound 31], under 30 nM; to `CCNc1nc(Nc2sc(C3(C#N)CC3)nc2C)ncc1C(F)(F)F` [Compound 32], under 30 nM. In turn, `CCNc1nc(Nc2sc(C(=O)N3CC4CCC(C3)O4)nc2C)ncc1C(F)(F)F` [Compound 33] came in with an IC50 of under 30 nM. Compound `CC(C)(C(N)=O)c1nc(Cl)c(Nc2ncc(C(F)(F)F)c(NC3CC3)n2)s1` [Compound 34] registered a concentration for half-maximal inhibition (IC50) of under 30 nM. As for `CNc1nc(Nc2sc(C(C)(C)C#N)nc2Cl)ncc1C(F)(F)F` [Compound 36], the concentration for half-maximal inhibition (IC50) is under 30 nM. `CCNc1nc(Nc2sc(C(C)(C)C(N)=O)nc2Cl)ncc1C(F)(F)F` [Compound 37] had an IC50 of under 30 nM. To `CCNc1nc(Nc2sc(C(C)(C)C(N)=O)nc2Cl)ncc1Br` [Compound 38] belongs under 30 nM; to `COc1nc(Nc2sc(C(C)(C)C(N)=O)nc2Cl)ncc1Br` [Compound 39], under 30 nM.

In turn, `CC(C)(C(N)=O)c1nc(Cl)c(Nc2ncc(C(F)(F)F)c(NCC(F)F)n2)s1` [Compound 40] showed an IC50 of under 30 nM. To `CC(C)(C(N)=O)c1nc(Cl)c(Nc2ncc(Br)c(NC3CC3)n2)s1` [Compound 41] belongs under 30 nM; to `CCNc1nc(Nc2sc(C(C)(C)C#N)nc2Cl)ncc1C(F)(F)F` [Compound 50], under 30 nM; to `CNc1nc(Nc2sc(C(C)(C)C#N)nc2C2CC2)ncc1C(F)(F)F` [Compound 61], under 30 nM.

Source of the values: patent US11028080B2, “Substituted pyrimidines as LRKK2 inhibitors” (Denali Therapeutics Inc., priority 2016, dated 2021).
